# Assay: Flowability (Flow Function, FF) of API particles
# Format: physicochemical
row,Flowability (Flow Function; FF) of uncoated particles,Structure (SMILES)
1,4.23,CC(C)Cc1ccc(C(C)C(=O)O)cc1 (stereo not drawn) [ibuprofen]
2,2.61,CC(=O)Nc1ccc(O)cc1 [Acetaminophen]
3,10,Cn1c(=O)c2[nH]cnc2n(C)c1=O [theophylline]

# — patent US12064522B2, “Low temperature process for preparing silicon oxide coated pharmaceuticals” (priority 2020, dated 2024)
